According to PMC6306373, “The development of a GPR44 targeting radioligand [^11C]AZ12204657 for in vivo assessment of beta cell mass” (EJNMMI Research, 2018):

Biological target: T1, GPR44 (prostaglandin D2 receptor 2, DP2, CRTh2) (Homo sapiens, UniProt Q9Y5Y4)
T1 construct: gene PTGDR2; human recombinant GPR44 co-expressed with Gα16 in HEK293 cell membranes
T1 sequence (Q9Y5Y4 1-395): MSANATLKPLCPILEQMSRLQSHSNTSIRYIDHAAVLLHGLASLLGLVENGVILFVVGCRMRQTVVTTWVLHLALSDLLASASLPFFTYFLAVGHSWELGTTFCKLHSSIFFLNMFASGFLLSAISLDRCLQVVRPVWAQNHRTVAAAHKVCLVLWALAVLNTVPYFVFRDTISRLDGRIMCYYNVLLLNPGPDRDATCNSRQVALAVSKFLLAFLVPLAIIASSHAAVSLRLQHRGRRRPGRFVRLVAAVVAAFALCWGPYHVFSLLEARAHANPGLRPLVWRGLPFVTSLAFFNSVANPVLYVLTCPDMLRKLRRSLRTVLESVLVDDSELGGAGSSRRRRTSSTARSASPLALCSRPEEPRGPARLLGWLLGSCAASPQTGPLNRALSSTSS
Assay: [3H]PGD2 displacement SPA on HEK293 membranes; also displacement of [[…]-3H-phenoxy]-AZ12204657 by filtration (IC50 […])
Type: binding

Work on `C[C@H](Oc1ccc(Cl)cc1Oc1ccc(S(C)(=O)=O)cc1Cl)C(=O)O` [AZ12204657, (S)-2-(4-chloro-2-[2-chloro-4-(methylsulfonyl)phenoxy]phenoxy) propanoic acid] yielded an IC50 of 2.5 nM.
